Test results: EP4578855A1, “PROLYL HYDROXYLASE INHIBITOR AND USE THEREOF” (Suzhong Pharmaceutical Group Co., Ltd., priority 2022, dated 2024)
Where “and” joins values, the source holds several entries; their conditions need not be identical. Equal entries are not always repeated. Where two headings read alike, the source gives them in different places.

Experiments:
PHD2 enzyme = target: T1, PHD2 enzyme (Homo sapiens, UniProt Q9GZT9); test: Detection of PHD2 enzyme activity inhibition (FITC-HIF1α tracer, mP read-out); assay type: biochemical
T1 construct: purchased Active motif
T1 sequence (Q9GZT9 whole entry, species assumed): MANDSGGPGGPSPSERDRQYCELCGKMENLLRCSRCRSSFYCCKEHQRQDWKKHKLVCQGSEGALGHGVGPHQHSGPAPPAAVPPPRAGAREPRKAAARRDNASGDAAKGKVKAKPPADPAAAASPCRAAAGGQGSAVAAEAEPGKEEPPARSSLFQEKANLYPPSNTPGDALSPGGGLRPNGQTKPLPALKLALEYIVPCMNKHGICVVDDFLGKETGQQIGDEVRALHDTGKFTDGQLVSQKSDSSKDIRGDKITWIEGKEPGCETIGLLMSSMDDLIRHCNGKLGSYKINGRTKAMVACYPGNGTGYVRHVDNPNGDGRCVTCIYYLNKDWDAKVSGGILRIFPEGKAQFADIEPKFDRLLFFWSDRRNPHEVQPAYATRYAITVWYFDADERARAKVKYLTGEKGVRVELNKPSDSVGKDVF
Method: (1) A 1×Assay buffer was prepared. […] 100 nL of 100% DMSO was added into a negative control well and a positive control well respectively. (3) An enzyme solution with 2 times final concentration was prepared with the 1×Assay buffer. (4) 5 µL of the enzyme solution with 2 times final concentration was added into a compound well and the positive control well respectively. (5) 5 µL of the 1 ×Assay buffer was added into the negative control well. (6) The 384-well plate was centrifuged at 1000 rpm for 30 seconds, oscillated and mixed evenly, and then incubated for 15 minutes. (7) A tracer solution with 2 times final concentration was prepared with the 1×Assay buffer, and 5.0 µL of the tracer solution with 2 times final concentration was added to start the reaction.

[1] = test system: human hepatocarcinoma cell line Hep3B; test: In-vitro erythropoietin (EPO)-inducing activity experiment (EPO ELISA, OD450); assay type: cell-based; conditions: Homo sapiens, Hep3B cells, incubated 24 hours at 37°C
Method: In-vitro erythropoietin (EPO)-inducing activities of the compounds in Embodiments 10 to 12 were evaluated by using a human hepatocarcinoma cell line Hep3B (ATCC). Hep3B cells were cultured in an EMEM medium (Eagle's Minimum Essential Medium) at 37°C in the presence of 10% fetal bovine serum (FBS). Experimental steps were as follows: • (1) Cell preparation: the cells were inoculated in a 96-well plate, and cell plating was carried out according to an amount of 100 µL per well based on 2*10~4 per well. • (2) Preparation of compound concentration gradient: 100 µM, 20 µM, 2-parallel well detection. A solution with 200 times final concentration was prepared in a 96-well plate, the compound was diluted 200/3 times by using a cell culture medium, and then 50 µL of the compound was sucked for drug administration to the cells. 50 µL of DMSO-containing culture solution was added into a negative control well to make a final concentration contain 5 ‰ DMSO, and 50 µL of positive compound with the highest concentration was added into a positive control well to incubate the cells at 37°C for 24 hours. • (3) The reaction plate was washed twice with 1X Wash Buffer according to about 400 µL per well. • (4) 100 µL of diluted standard (comprising a standard blank control) was added into an appropriate well. • (5) 50 µL of sample and 50 µL of Sample Diluent were added into a sample well. • (6) 50 µL of 1X Biotin Conjugated Antibody were added into all wells to incubate the cells at room temperature for 1 hour. • (7) The reaction plate was washed with 1X Wash Buffer for 6 times according to about 400 µL per well. • (8) 100 µL of 1X Streptavidin-HRP was added in to each well to incubate the cells at room temperature for 15 minutes. • (9) The reaction plate was washed with 1X Wash Buffer for 6 times according to about 400 µL per well. • (10) 100 µL of TMB Substrate Solution was added into each well to incubate the cells at room temperature for 10 minutes. • (11) 100 µL of Stop Solution was added into each well. • (12) OD450 was read by EnSight.
The EPO-inducing activities of the compounds were expressed as the concentration for 50% of maximal effect (EC50).

EPO (erythropoietin) = test: Pharmacological evaluation: influence of continuous administration on EPO level; assay type: in vivo, SD rats
Method: This experiment was intended to evaluate an influence of continuous administration of the compounds prepared in Embodiments 12, 13 and 14 on EPO (erythropoietin) in SD rats.
• Line: SD (Sprague Dawley) • Weeks of age and weight: 8 weeks, weight 200 g to 220 g • Sex: male • Animal source: Beijing Vital River Laboratory Animal Technology Co., Ltd.
• Positive drug: Enarodustat • Description: commercialized drugs approved for marketing in Japan • Specification and content: 2 mg JTZ-951(Enarodustat), 140 capsules/box
After a week of adaptive feeding, SD rats were randomly divided into 3 groups, 6 rats in each group, which were namely a blank group, a positive drug group (Enarodustat) and a group of compound in Embodiment 12. An Enarodustat tablet was crushed by a mortar, then quantitatively added with 0.5% methyl cellulose, and magnetically stirred and mixed evenly; and the compound prepared in Embodiment 12 was weighed, then quantitatively added with 0.5% methyl cellulose, and magnetically stirred and mixed evenly. […] The drug was given once a day for 14 consecutive days, and blood was taken to measure an EPO level 4 hours after the drug was given on the 14th day.

[2] = Pharmacokinetic evaluation after intravenous injection or intragastric administration, plasma LC-MS/MS; assay type: in vivo, SD rats; conditions: male, Sprague-Dawley, rat, plasma, male SD rats
Excerpt: After the compounds were given to SD rats by intravenous injection or intragastric administration, concentrations of related compounds in plasma were detected by an LC-MS/MS method, and pharmacokinetics and absolute bioavailability of the compounds prepared in Embodiments 13 and 14 in the rats were preliminarily evaluated.
2. Line: Sprague Dawley rats, sex: male, weight: 200 g to 250 g
Pharmacokinetic characteristics of rodents after intravenous injection and oral administration of the compounds were tested by a standard scheme. In the experiment, a candidate compound was prepared into a clear solution, and given to the rats by single intravenous injection and intragastric administration. A solvent for intravenous injection was a certain proportion of N,N-dimethylacetamide (DMA) and 10% Solutol HS15 solution, and a solvent for oral administration was a certain proportion of sodium carboxymethyl cellulose (CMC) suspension. 5 minutes, 15 minutes, 30 minutes, 1 hour, 2 hours, 4 hours, 6 hours, 8 hours, 10 hours and 24 hours after drug administration, blood samples of the animals were respectively collected into K2EDTA anticoagulation tubes, which were temporarily stored on ice until centrifugation.

[3] = test concentration from 10 µM, diluted 3 times into 10 concentrations, read-out: IC50

| SMILES | IC50 (PHD2 enzyme; [3]) [nM] | also measured |
| --- | --- | --- |
| O=C(O)CNC(=O)c1c(O)cc(Oc2ccccc2)n2ncnc12 [Compound in Embodiment 1] | 19.8 | – |
| O=C(O)CNC(=O)c1c(O)cc(Oc2ccccc2Cl)n2ncnc12 [Compound in Embodiment 2, (5-(2-chlorophenoxy)-7-hydroxy-[1,2,4]triazolyl[1,5-a]pyridine-8-carbonyl)glycine] | 34.8 | – |
| O=C(O)CNC(=O)c1c(O)cc(Oc2cccc(Cl)c2)n2ncnc12 [Compound in Embodiment 3, (5-(3-chlorophenoxy)-7-hydroxy-[1,2,4]triazolyl[1,5-a]pyridine-8-carbonyl)glycine] | 30.2 | – |
| O=C(O)CNC(=O)c1c(O)cc(Oc2ccc(Cl)cc2)n2ncnc12 [Compound in Embodiment 4, (5-(4-chlorophenoxy)-7-hydroxy-[1,2,4]triazolyl[1,5-a]pyridine-8-carbonyl)glycine] | 33.3 | – |
| Cc1ccc(Oc2cc(O)c(C(=O)NCC(=O)O)c3ncnn23)cc1 [Compound in Embodiment 5, (5-(p-tolyloxy)-7-hydroxy-[1,2,4]triazolyl[1,5-a]pyridine-8-carbonyl)glycine] | 44.1 | – |
| COc1ccc(Oc2cc(O)c(C(=O)NCC(=O)O)c3ncnn23)cc1 [Compound in Embodiment 6, (5-(p-methoxyphenoxy)-7-hydroxy-[1,2,4]triazolyl[1,5-a]pyridine-8-carbonyl)glycine] | 47.6 | – |
| O=C(O)CNC(=O)c1c(O)cc(Oc2cccc(N3CCOCC3)c2)n2ncnc12 [Compound in Embodiment 7, (5-(3-morpholinphenoxy)-7-hydroxy-[1,2,4]triazolyl[1,5-a]pyridine-8-carbonyl)glycine] | 34.1 | – |
| O=C(O)CNC(=O)c1c(O)cc(Oc2ccc(F)cc2)n2ncnc12 [Compound in Embodiment 8, (5-(4-fluorophenoxy)-7-hydroxy-[1,2,4]triazolyl[1,5-a]pyridine-8-carbonyl)glycine] | 35.4 | – |
| CCCOc1cc(O)c(C(=O)NCC(=O)O)c2ncnn12 [Compound in Embodiment 9, (5-(propoxy)-7-hydroxy-[1,2,4]triazolyl[1,5-a]pyridine-8-carbonyl)glycine] | 34 | – |
| O=C(O)CNC(=O)c1c(O)cc(C#Cc2ccccc2)n2ncnc12 [Compound in Embodiment 10, [(7-hydroxy-5-(phenylethynyl)-[1,2,4]triazolo[1,5-a]pyridine-8-carbonyl)amino]acetic acid] | 46.7 | EC50 ([1]; Hep3B, 24 h): 6460 nM |
| O=C(O)CNC(=O)c1c(O)cc(C=Cc2ccccc2)n2ncnc12 [Compound in Embodiment 11, [(7-hydroxy-5-(styryl)-[1,2,4]triazolo[1,5-a]pyridine-8-carbonyl)amino]acetic acid] | 31.3 | EC50 ([1]; Hep3B, 24 h): 1790 nM |
| O=C(O)CNC(=O)c1c(O)cc(CCc2ccccc2)n2ncnc12 [Enarodustat, reference compound] | – | IC50 (PHD2 enzyme): 21.9 nM; EC50 [1]: 15100 nM; EPO levels in serum of the rats (EPO (erythropoietin); after 14 days of administration, in words): increased significantly; EPO level after 14 days of administration (EPO (erythropoietin); individual rats 1-6, 0.3 mg/mL, 10 mL/kg, once a day for 14 consecutive days, blood 4 hours after the drug on the 14th day, 2904.6 pg/mL was an upper limit of measurement): 452.8 pg/mL and 396.3 pg/mL and 483.2 pg/mL and 404.5 pg/mL and 418.4 pg/mL and 442.3 pg/mL; EPO level after 14 days of administration, Mean (EPO (erythropoietin); mean of 6 rats, 0.3 mg/mL, 10 mL/kg, once a day for 14 consecutive days, blood 4 hours after the drug on the 14th day, 2904.6 pg/mL was an upper limit of measurement): 432.9 pg/mL; AUC ([2]; route and dose not given, read-out: Concentration integral AUC): 11400 ng·h/mL; half-life ([2]; route and dose not given, read-out: Half-life period T1/2 (converted)): 1.12 h; bioavailability ([2]; oral, intragastric vs intravenous, read-out: Bioavailability F): 30.1% |
| Cc1nc(C(=O)NCC(=O)O)c(O)c2ccc(Oc3ccccc3)cc12 [FG-4592, Roxadustat, reference compound] | – | EC50 ([1]; Hep3B, 24 h): 13800 nM |
